Measurements published in ChEMBL document CHEMBL1132537, “A series of 6- and 7-piperazinyl- and -piperidinylmethylbenzoxazinones with dopamine D4 antagonist activity: discovery of a potential atypical antipsychotic agent” (J Med Chem, 1999).
pIC50, pKi: −log10 of the molar value.

Experiments:
D(3) dopamine receptor = D(3) dopamine receptor (Homo sapiens, UniProt P35462); experiment: biochemical
Description: Binding affinity at Dopamine receptor D3 in CHO cells by radioligand displacement.

Rattus norvegicus [1] = experiment: Effect on Dopamine synthesis in rat Hippocampus(HI), measured as accumulation of DOPA(L-3,4-dihydroxyphenylalanine) at a peroral dose of 30 mg/kg; format: functional; details: route oral
Rattus norvegicus [2] = experiment: Effect on Dopamine synthesis in rat Striatum(ST), measured as accumulation of DOPA(L-3,4-dihydroxyphenylalanine) at a peroral dose of 30 mg/kg; format: functional; details: route oral
D(4) dopamine receptor = molecular target: T1, D(4) dopamine receptor (Homo sapiens, UniProt P21917); experiment: biochemical
T1 sequence (P21917 whole entry): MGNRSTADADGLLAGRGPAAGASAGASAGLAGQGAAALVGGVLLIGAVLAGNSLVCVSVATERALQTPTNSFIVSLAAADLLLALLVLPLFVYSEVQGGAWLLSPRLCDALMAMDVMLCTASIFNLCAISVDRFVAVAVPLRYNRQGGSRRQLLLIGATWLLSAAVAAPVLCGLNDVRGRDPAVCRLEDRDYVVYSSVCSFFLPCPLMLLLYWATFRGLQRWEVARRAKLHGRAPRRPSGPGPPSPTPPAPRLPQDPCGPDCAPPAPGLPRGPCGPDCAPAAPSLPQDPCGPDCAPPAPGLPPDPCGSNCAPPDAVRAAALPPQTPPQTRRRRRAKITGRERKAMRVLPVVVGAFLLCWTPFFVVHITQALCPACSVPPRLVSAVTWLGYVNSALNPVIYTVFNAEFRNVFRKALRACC
Description: Binding affinity at Dopamine receptor D4 in CHO cells by radioligand displacement.

Rattus norvegicus [3] = experiment: Effect on Dopamine synthesis in rat Striatum(ST), measured as accumulation of DOPA(L-3,4-dihydroxyphenylalanine) at a peroral dose of 10 mg/kg; format: functional; details: route oral
Rattus norvegicus [4] = experiment: Effect on Dopamine synthesis in rat Hippocampus(HI), measured as accumulation of DOPA(L-3,4-dihydroxyphenylalanine) at a peroral dose of 10 mg/kg; format: functional; details: route oral
Rattus norvegicus [5] = experiment: Effect on Dopamine synthesis in rat Striatum(ST), measured as accumulation of DOPA(L-3,4-dihydroxyphenylalanine) at a peroral dose of 20 mg/kg; format: functional; details: route oral
Rattus norvegicus [6] = experiment: Effect on Dopamine synthesis in rat Hippocampus(HI), measured as accumulation of DOPA(L-3,4-dihydroxyphenylalanine) at a peroral dose of 20 mg/kg; format: functional; details: route oral
D(2) dopamine receptor = D(2) dopamine receptor (Homo sapiens, UniProt P14416); experiment: Binding affinity at Dopamine receptor D2 in CHO cells by radioligand displacement.; format: cell-based
Sequence of D(2) dopamine receptor (P14416 whole entry): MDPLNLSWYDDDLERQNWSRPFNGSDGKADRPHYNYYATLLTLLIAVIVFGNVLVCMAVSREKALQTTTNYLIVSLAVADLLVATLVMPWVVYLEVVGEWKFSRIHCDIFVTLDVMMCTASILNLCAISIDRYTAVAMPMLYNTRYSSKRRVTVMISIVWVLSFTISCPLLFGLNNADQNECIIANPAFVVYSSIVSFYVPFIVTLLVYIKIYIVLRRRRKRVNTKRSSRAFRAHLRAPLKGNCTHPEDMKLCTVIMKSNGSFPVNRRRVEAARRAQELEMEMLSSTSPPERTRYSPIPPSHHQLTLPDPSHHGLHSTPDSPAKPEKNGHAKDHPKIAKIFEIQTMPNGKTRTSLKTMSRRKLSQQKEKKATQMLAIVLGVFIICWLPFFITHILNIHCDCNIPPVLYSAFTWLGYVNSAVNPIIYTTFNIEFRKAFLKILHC

[7] = molecular target: Sigma intracellular receptor 2 (Rattus norvegicus, UniProt Q5U3Y7); experiment: Inhibition of [3H]- Ifenprodil binding against rat brain Sigma opioid receptor type 2
Sequence of Sigma intracellular receptor 2 (Q5U3Y7 whole entry, looked up): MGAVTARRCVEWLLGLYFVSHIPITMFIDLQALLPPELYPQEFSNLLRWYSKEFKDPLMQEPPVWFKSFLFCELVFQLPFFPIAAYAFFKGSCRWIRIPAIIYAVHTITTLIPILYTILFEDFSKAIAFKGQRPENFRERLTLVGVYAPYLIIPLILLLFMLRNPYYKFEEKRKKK

[8] = molecular target: T2, Alpha-2B adrenergic receptor (Rattus norvegicus, UniProt P19328); experiment: Inhibition of [3H]- Yohimbine binding against rat kidney cortex Alpha-2B adrenergic receptor
T2 sequence (P19328 whole entry): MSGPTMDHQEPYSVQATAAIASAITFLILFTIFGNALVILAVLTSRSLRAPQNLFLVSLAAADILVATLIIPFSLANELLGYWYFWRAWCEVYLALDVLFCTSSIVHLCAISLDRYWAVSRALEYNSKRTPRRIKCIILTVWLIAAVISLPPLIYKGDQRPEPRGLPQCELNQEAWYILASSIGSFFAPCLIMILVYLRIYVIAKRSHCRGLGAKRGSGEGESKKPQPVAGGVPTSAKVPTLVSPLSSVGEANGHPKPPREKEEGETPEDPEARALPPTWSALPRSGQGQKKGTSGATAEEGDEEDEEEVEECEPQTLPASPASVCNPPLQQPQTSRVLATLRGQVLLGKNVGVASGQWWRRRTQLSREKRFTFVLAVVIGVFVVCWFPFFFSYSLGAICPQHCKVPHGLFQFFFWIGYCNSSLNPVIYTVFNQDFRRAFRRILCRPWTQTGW

[9] = molecular target: Serotonin 2 (5-HT2) receptor (Rattus norvegicus, UniProt P30994+P08909+P14842); experiment: Inhibition of [3H]- Ketanserin binding against rat brain 5-hydroxytryptamine 2 receptor
[10] = molecular target: T3, Alpha-2A adrenergic receptor (Homo sapiens, UniProt P08913); experiment: Inhibition of [3H]- MK-912 binding against human recombinant Alpha-2A adrenergic receptor
T3 sequence (P08913 whole entry): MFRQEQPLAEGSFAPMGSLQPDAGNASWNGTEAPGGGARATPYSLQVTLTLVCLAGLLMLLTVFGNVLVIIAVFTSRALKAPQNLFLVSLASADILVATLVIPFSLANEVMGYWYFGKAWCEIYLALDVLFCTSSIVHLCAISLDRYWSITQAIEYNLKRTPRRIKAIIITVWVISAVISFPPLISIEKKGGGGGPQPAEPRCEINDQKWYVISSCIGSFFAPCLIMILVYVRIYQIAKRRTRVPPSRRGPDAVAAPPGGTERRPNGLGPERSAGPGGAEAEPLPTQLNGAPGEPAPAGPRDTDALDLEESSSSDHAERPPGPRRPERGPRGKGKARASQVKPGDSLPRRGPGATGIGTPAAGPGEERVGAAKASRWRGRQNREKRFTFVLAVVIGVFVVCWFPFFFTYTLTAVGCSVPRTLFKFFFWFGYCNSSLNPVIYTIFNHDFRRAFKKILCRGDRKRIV

[11] = molecular target: T4, Alpha-1B adrenergic receptor (Rattus norvegicus, UniProt P15823); experiment: Inhibition of [3H]- prazosin binding against Alpha-1B adrenergic receptor from rat liver
T4 sequence (P15823 whole entry): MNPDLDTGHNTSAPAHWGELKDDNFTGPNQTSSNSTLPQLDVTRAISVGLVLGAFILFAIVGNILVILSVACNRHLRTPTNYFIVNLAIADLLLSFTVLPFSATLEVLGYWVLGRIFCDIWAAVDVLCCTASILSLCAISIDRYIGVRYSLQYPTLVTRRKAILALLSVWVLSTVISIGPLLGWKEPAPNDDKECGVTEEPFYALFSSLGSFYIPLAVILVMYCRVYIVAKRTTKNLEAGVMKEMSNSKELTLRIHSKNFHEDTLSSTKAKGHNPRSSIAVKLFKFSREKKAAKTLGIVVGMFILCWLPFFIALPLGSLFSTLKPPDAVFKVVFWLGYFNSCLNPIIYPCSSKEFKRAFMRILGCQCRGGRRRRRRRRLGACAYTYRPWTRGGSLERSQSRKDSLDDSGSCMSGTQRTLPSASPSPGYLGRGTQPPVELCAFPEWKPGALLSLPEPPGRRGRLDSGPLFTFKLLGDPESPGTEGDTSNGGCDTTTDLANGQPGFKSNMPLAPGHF

[12] = molecular target: T5, Muscarinic acetylcholine receptor M5 (Homo sapiens, UniProt P08912); experiment: Inhibition of [3H]- NMS binding against human recombinant Muscarinic acetylcholine receptor M5
T5 sequence (P08912 whole entry): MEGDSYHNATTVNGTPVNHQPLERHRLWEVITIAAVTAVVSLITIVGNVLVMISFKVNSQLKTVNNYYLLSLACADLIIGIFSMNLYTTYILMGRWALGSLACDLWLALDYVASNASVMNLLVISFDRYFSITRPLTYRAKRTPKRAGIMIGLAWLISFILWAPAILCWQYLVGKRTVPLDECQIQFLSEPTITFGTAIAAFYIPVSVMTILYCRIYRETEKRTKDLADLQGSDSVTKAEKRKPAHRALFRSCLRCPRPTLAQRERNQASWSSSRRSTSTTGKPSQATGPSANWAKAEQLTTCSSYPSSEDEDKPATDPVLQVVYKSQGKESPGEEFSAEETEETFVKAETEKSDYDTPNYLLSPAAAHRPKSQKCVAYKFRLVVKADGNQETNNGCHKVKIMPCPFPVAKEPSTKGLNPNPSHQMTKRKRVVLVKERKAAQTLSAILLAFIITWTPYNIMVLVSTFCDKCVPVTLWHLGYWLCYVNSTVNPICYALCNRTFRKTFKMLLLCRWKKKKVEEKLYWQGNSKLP

[13] = molecular target: T6, Alpha-1A adrenergic receptor (Rattus norvegicus, UniProt P43140); experiment: Inhibition of [3H]- prazosin binding against Alpha-1A adrenergic receptor from rat submaxillary gland
T6 sequence (P43140 whole entry): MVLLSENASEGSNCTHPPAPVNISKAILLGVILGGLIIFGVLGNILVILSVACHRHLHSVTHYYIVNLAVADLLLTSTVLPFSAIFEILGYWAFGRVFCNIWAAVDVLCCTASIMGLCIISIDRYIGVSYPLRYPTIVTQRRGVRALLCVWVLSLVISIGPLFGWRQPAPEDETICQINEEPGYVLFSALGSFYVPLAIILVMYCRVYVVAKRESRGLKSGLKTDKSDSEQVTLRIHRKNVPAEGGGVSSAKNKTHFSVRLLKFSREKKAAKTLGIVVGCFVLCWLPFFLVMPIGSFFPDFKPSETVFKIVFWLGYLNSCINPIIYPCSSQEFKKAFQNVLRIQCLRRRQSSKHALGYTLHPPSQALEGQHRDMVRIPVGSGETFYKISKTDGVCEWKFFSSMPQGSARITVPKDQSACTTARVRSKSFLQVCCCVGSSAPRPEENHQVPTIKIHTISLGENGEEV

[14] = molecular target: T7, 5-hydroxytryptamine receptor 1A (Homo sapiens, UniProt P08908); experiment: Inhibition of [3H]- […] binding against human recombinant 5-hydroxytryptamine 1A receptor
T7 sequence (P08908 whole entry): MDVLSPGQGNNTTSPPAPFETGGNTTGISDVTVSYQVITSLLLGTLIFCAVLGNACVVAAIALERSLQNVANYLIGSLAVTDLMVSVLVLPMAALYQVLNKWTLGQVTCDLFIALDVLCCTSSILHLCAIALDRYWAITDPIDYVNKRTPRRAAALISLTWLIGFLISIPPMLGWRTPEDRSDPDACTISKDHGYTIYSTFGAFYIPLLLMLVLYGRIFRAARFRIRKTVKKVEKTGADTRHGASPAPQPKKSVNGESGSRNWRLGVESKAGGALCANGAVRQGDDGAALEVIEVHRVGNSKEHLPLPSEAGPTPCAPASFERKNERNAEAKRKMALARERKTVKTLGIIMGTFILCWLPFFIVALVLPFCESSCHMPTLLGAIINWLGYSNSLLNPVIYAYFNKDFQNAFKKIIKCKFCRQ

Sequence of D(3) dopamine receptor (P35462 whole entry): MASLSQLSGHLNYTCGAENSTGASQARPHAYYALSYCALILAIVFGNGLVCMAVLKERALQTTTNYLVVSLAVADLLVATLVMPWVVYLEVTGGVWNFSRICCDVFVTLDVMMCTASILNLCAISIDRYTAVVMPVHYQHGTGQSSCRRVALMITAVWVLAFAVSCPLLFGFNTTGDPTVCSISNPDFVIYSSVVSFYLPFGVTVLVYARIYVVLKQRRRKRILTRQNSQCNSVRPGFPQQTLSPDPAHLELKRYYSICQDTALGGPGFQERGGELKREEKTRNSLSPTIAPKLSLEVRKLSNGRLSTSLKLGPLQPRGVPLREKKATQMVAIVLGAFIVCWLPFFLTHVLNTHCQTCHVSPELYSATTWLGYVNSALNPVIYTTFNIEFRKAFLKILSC

| pKi (D(3) dopamine receptor) | pKi (D(4) dopamine receptor) | SMILES | Change (Rattus norvegicus [3]) | Change (Rattus norvegicus [4]) | other results |
| --- | --- | --- | --- | --- | --- |
| < 5.52 |  | COc1ccc(C2CCN(Cc3ccc4c(c3)NC(=O)CO4)CC2)cc1 |  |  | Change (Rattus norvegicus [1]): 93%; Change (Rattus norvegicus [2]): 96% |
| < 5.52 | 7.20 | O=C1COc2ccc(CN3CCN(c4ccc(Cl)cc4)CC3)cc2N1 |  |  |  |
| 6.07 | 8.59 | Cc1ccc(C2CCN(Cc3ccc4c(c3)OCC(=O)N4)CC2)cc1C | 99% | 103% |  |
| 6.08 | 7.74 | O=C1COc2ccc(CN3CCN(c4ccccc4)CC3)cc2N1 |  |  |  |
| 6.37 | 8.17 | COc1ccc(C2CCN(Cc3ccc4c(c3)OCC(=O)N4)CC2)cc1 |  |  | Change (Rattus norvegicus [5]): 126%; Change (Rattus norvegicus [6]): 132% |
| < 5.52 | 8.74 | Cc1ccc(C2CCN(Cc3ccc4c(c3)NC(=O)CO4)CC2)cc1C |  |  | Change in DA synthesis (Rattus norvegicus [3]): 104%; Change in DA synthesis (Rattus norvegicus [4]): 128% |
| 5.75 | 8.30 | COc1ccc(N2CCN(Cc3ccc4c(c3)OCC(=O)N4)CC2)cc1 | 104% | 122% | pKi (D(2) dopamine receptor): < 5.23 |
| 6.68 |  | Cc1ccc(N2CCN(Cc3ccc4c(c3)OCC(=O)N4)CC2)cc1 | 140% | 133% |  |
| 6.06 |  | Cc1ccc(N2CCN(Cc3ccc4c(c3)NC(=O)CO4)CC2)cc1C | 126% | 122% |  |
| 6.63 | 8.59 | Cc1ccc(C2CCN(Cc3ccc4c(c3)OCC(=O)N4)CC2)cc1 |  |  |  |
| 7.11 |  | Cc1ccc(N2CCN(Cc3ccc4c(c3)OCC(=O)N4)CC2)cc1C |  |  |  |
| < 5.52 | 8.55 | Cc1ccc(C2CCN(Cc3ccc4c(c3)NC(=O)CO4)CC2)cc1 |  |  |  |
| < 5.52 |  | COc1ccc(N2CCN(Cc3ccc4c(c3)NC(=O)CO4)CC2)cc1 |  |  | Change (Rattus norvegicus [1]): 91%; Change (Rattus norvegicus [2]): 110% |

| SMILES | pKi (D(3) dopamine receptor) | pKi (D(4) dopamine receptor) | Change (Rattus norvegicus [3]) | Change (Rattus norvegicus [4]) | other results |
| --- | --- | --- | --- | --- | --- |
| O=C1COc2cc(CN3CCN(c4ccccc4)CC3)ccc2N1 | 7.98 | 8.21 |  |  |  |
| Cc1ccc(N2CCN(Cc3ccc4c(c3)NC(=O)CO4)CC2)cc1 | 5.60 | 8.37 |  |  | Change (Rattus norvegicus [5]): 111%; Change (Rattus norvegicus [6]): 89% |
| O=C1COc2cc(CN3CCN(c4ccc(Cl)cc4)CC3)ccc2N1 | 6.17 | 8.37 | 110% | 146% | pIC50 [7]: 6.43; pKi [7]: 6.64; pKi (D(2) dopamine receptor): 6.38; pIC50 [8]: 6.20; pKi [8]: 6.43; IC50 [9]: 2700 nM; Ki [9]: 1678 nM; pIC50 [10]: 5.96; pKi [10]: 6.39; pIC50 [11]: 5.85; pKi [11]: 6.10; pIC50 [12]: 5.87; pKi [12]: 6.02; pIC50 [13]: 6.30; pKi [13]: 6.69; pIC50 [14]: 5.85; pKi [14]: 6.10 |
